Results: patent US20220047716A1, “COMBINATION THERAPIES WITH ANTI-FOLATE RECEPTOR ANTIBODY CONJUGATES” (SUTRO BIOPHARMA, INC., priority 2018, published 2022)
Values joined by “and” are separate entries in the source; they are usually repeats but may differ in a detail not shown here. Equal values may be shown once.

What was measured:
[1] = Body weight change in rats given free drugs; format: in vivo; conditions: IV bolus, free drug (I) two doses (0.4, 1 mg/kg), free drug (II) 0.4 mg/kg
[2] = Pharmacokinetics of free drugs (I) and (II) in Sprague-Dawley rats; format: in vivo; conditions: IV bolus 0.4 or 1 mg/kg, data not shown
Experimental: To assess the pharmacokinetic profile of free drug (I), female Sprague-Dawley rats (mean body weight 250 g) were given either a 0.4 mg/kg or 1 mg/kg dose by IV bolus administration (N=three animal per dose level) via an indwelling jugular vein catheter. Blood samples were collected at […], 1, 2, 8, 24, 32, 48, and 72 hour post-dose. Levels of free drug (I) and (II) were measured by LC-MS/MS and non-compartmental pharmacokinetic analysis was conducted using Phoenix WinNonlin Version 6.4 (Pharsight Corporation). The PK of free drug (I) could not be estimated due to the fact that concentrations of (I) increased from 2 to 8 hours and were undetectable thereafter.

MC38-hFolRα tumors = assay: MC38-hFolRα tumor model, combination with Avelumab; conditions: ADC Molecule 4 10 or 15 mg/kg once IV; Avelumab q3dx3 intraperitoneally
Experimental: Growth curves are shown until >50% of animals in the single agent treatment groups were euthanized due to reaching tumor size limit based on IACUC protocol. […] Statistical analysis for comparison to vehicle control was performed using one-way ANOVA with Dunnett's multiple comparisons test. A probability of less than 5% (p<0.05) was considered as significant. […] All graphs are presented as mean or individual values±SEM.

Igrov1 tumors = assay: Igrov1 ovarian tumor xenograft efficacy in SCID Beige mice; format: in vivo; conditions: Igrov1, day 29; ADC Molecule 4 2.5 mg/kg single dose; carboplatin 60 mg/kg q7dx2
Experimental: Igrov1 ovarian cancer cells were implanted subcutaneously into SCID Beige mice and treated with a single dose of 2.5 mg/kg FolRα ADC variants listed in Table 20. ADCs were administered when tumors reached ˜150 mm^3.

Compound: CN[C@H](C(=O)N[C@H](C(=O)N(C)[C@H](/C=C(\C)C(=O)O)C(C)C)C(C)(C)C)C(C)(C)c1cccc(N)c1 [free drug (I)]
- Effect on body weight [1]: did not have an effect on the body weight of the animals
- Plasma level of free drug [2]: undetectable at 24 hours post dose

Compound: Avelumab: PD-L1 inhibitor Avelumab (clinical grade)
- Initial effect on MC38-hFolRα tumor growth (MC38-hFolRα tumors): tumor stasis until approximately day 7

Compound: N.N.O=C([O-])C1(C(=O)[O-])CCC1.[Pt+2] [carboplatin]
- Final mean tumor size (Igrov1 tumors): 842 mm^3
- Tumor growth inhibition (TGI) (Igrov1 tumors): 70% and 47%

Compound: COc1cc2cc(c1Cl)N(C)C(=O)C[C@H](OC(=O)[C@H](C)N(C)C(=O)CCC(C)(C)S)[C@]1(C)O[C@H]1[C@H](C)[C@@H]1C[C@@](O)(NC(=O)O1)[C@H](OC)/C=C/C=C(/C)C2 [free drug (II), reference compound]
- Effect on body weight [1]: progressive body weight loss was observed
